How the values were obtained:
maize pollen [1] = assay: Protective compounds: prevention of pollen bursting on germination media; assay type: cell-based; conditions: loose pollen soaked 20 minutes, compared with fresh pollen without protection
Description: In this example, various putative protective compounds were evaluated for their efficacy in preventing pollen from bursting on germination media. Nine different chemical treatments were applied to loose pollen shed from maize plants. Pollen was soaked in chemical solution for 20 minutes and then placed on media to observe the impact on pollen viability and compared with fresh pollen without protection as control.

maize pollen [2] = assay: Pollen tube formation with germination media comprising surfactant; assay type: cell-based; conditions: surfactant at both 0.01% and 0.1% in germination media, pollen stored 1° C. for a day, within two hours
Description: Maize pollen was stored in 326C media with 1000 mM Sucrose and 500 mM Betaine at a pH of 9.0. Pollen was stored at 1° C. for a day. After this time period, germination medias comprising surfactant were added in amounts up to five times the volume of storage media. Surfactant conditions tested were 0.1% Tween 20, 0.01% Tween 20, 0.1% Pluronic F68, and 0.01% Pluronic F68 (final concentration). Pollen was observed microscopically prior to replacement of media and two hours after replacement. Pluronic F68, also known as poloxamer 188, is a non-ionic surfactant, a member of a class of polaxamers comprising non-ionic triblock copolymers composed of a central hydrophobic chain of polyoxypropylene flanked by two hydrophilic chains of polyoxyethylene.

Compound | Preventing pollen from bursting on germination media (maize pollen [1]) | Pollen tube formation (maize pollen [2])
C[S+](C)[O-] [5% DMSO, DMSO] | did not prevent pollen from bursting | 
Tween 20 |  | lysis but no pollen tube formation

Source: patent US20220110318A1, “COMPOSITIONS AND METHODS FOR POLLEN STORAGE AND PRESERVATION” (PIONEER HI-BRED INTERNATIONAL, INC., priority 2018, published 2022)
